Test results as given in paper PMC6225478, “Natural Scaffolds with Multi-Target Activity for the Potential Treatment of Alzheimer’s Disease” (Molecules : A Journal of Synthetic Chemistry and Natural …, 2018).
Where “and” joins values, the source holds several entries; their conditions need not be identical. Equal values may be shown once. Read-outs that look alike come from different tables or passages of the source.

Experiments:
[1] = molecular target: T1, Aβ1–40 (Homo sapiens, UniProt P05067); experiment: Inhibition of Aβ1–40 aggregation (ThT fluorescence); assay type: biochemical; details: Aβ1–40 30 μM; for IC50: 2 h at 25 °C, ThT fluorescence; for iAβ %I (100μM): percentage of inhibition at 100 μM inhibitor
T1 construct: diluting Aβ1–40 (EZBiolab, Carmel, IN, USA); purchased EZBiolab, Carmel, IN, USA
T1 sequence (P05067 672-711): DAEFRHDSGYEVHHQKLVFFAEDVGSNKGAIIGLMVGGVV
Procedure: The spectrofluorimetric assays measured ThT fluorescence in the presence of Aβ and were done as previously described [39]. Co-incubation samples were prepared in 96-well black, non-binding microplates (Greiner Bio-One GmbH, Frickenhausen, Germany) by diluting Aβ1–40 (EZBiolab, Carmel, IN, USA) alone or in the presence of the inhibitor to a final concentration of 30 μM and 100 μM, respectively, in PBS (pH 7.4) containing 10% DMSO and 2% 1,1,1,3,3,3-hexafluoro-2-propanol (HFIP). After 2 h of incubation at 25 °C, 25 μM ThT solution in phosphate buffer (pH 6.0) was added and fluorescence was read in a multi-plate reader Infinite M1000 Pro (Tecan, Cernusco S.N., Italy). […] Assays were run in triplicate. Values are expressed as mean ± SEM.

[2] = Antioxidant activity (DPPH radical scavenging assay); details: DPPH 100 µM in methanol, 30 min
Procedure: The DPPH assay is routinely practiced for the assessment of the free radical scavenging potential of an antioxidant molecule.
The DPPH radical scavenging assay was performed in 96-well microplates according to the method reported by Blois with some modifications.
A freshly prepared solution of DPPH in methanol (100 µM final concentration) was added to test compounds methanolic solution. The mixtures were shaken vigorously and left to stand in the dark for 30 min at room temperature. Then absorbance was read at 520 nm using a spectrophotometric plate reader (Victor 3 Perkin-Elmer).
The antioxidant activity was determined as the RSA% (radical scavenging activity) and calculated using the following equation: RSA% = 100 × [(Ao − Ai)/Ao] where Ao and Ai are the DPPH absorbance in the absence or in the presence of antioxidants, respectively. Different sample concentrations were used in order to obtain anti-radical curves for calculating the EC50 values. Anti-radical curves were plotted referring to log concentration on the x-axis and their RSA% on the y-axis. The EC50 values and statistical analyses were processed using the GraphPad Prism 5 software (San Diego, CA, USA).
Values of all parameters are expressed as mean ± SEM of at least three independent measurements in triplicate.

[3] = molecular target: T2, AChE from electric eel (Electrophorus electricus, UniProt O42275); experiment: biochemical
T2 construct: purchased Sigma-Aldrich, Milan, Italy
T2 sequence (O42275 24-633): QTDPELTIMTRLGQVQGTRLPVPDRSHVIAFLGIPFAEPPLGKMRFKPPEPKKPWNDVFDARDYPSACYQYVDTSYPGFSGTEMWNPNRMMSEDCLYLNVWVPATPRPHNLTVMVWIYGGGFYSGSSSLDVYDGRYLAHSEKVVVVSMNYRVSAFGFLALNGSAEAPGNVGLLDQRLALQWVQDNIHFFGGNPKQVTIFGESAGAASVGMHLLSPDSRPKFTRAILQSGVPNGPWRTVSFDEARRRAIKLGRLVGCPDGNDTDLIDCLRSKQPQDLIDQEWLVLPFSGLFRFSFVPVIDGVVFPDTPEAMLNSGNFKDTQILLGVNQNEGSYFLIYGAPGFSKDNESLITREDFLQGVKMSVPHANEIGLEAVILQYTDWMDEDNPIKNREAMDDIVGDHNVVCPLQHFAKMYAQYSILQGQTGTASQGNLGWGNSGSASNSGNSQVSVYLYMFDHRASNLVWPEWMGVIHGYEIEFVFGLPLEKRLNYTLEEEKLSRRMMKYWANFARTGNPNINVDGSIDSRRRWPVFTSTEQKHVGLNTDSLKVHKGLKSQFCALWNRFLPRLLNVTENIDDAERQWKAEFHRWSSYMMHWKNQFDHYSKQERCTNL
Procedure: (§1) A modified protocol of Ellman’s spectrophotometric assay [54] adapted to a 96-well plate procedure was followed as previously described [39]. Incubation samples of AChE from electric eel or BChE from equine serum (eeAChE, 463 U/mg, and esBChE, 13 U/mg, Sigma-Aldrich, Milan, Italy) were set in phosphate buffer (pH 8.0) containing 0.5 mM 5,5′-dithiobis(2-nitrobenzoic acid) (DTNB; Sigma-Aldrich, Milan, Italy) as the chromophoric reagent alone or in the presence of the inhibitor (10 μM). Incubations were carried out in clear flat-bottomed, 96-well plates (Greiner Bio-One GmbH, Frickenhausen, Germany) in duplicate. […] After incubation for 20 min at 25 °C, 0.5 mM acetyl- or butyrylthiocholine iodide (Sigma-Aldrich, Milan, Italy) were added as the substrates and AChE-catalyzed hydrolysis was followed by measuring the increase of absorbance at 412 nm for 5 min at 25 °C in a Tecan Infinite M1000 Pro multiplate reader (Tecan, Cernusco S.N., Italy). Inhibition values and IC50s were calculated with a GraphPad Prism as the mean of three independent experiments and are expressed as mean ± SEM.

[4] = molecular target: T3, BChE from equine serum (Equus caballus, UniProt P81908); experiment: BChE inhibition, modified Ellman's spectrophotometric assay; assay type: biochemical; details: for esBChEi %I (10μM): percentage of inhibition at 10 μM inhibitor, equine serum BChE
T3 construct: purchased Sigma-Aldrich, Milan, Italy; host or cells: equine serum
T3 sequence (P81908 whole entry): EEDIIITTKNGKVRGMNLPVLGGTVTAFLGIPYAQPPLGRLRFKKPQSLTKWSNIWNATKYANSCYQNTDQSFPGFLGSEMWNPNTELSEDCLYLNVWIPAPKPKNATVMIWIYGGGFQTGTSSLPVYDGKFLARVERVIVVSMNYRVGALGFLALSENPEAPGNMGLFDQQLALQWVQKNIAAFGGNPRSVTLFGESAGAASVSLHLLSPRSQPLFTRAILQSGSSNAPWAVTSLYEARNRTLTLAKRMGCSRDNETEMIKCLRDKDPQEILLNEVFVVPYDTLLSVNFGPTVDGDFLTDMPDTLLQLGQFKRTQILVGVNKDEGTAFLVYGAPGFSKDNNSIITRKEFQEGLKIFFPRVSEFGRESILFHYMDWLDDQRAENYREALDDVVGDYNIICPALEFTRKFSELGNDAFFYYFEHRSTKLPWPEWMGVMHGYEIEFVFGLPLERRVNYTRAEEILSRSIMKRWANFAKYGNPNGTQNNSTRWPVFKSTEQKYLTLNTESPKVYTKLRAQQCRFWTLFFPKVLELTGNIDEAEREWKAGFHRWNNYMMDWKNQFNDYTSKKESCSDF
Procedure: as §1

[5] = test system: Aβ; set-up: method as in PMID 21261647; details: read-out: Inhibitory activity of Aβ aggregation IC50; cited from earlier work
[6] = test system: AChE; set-up: method as in earlier work; details: ref 40 (Ali et al.); read-out: AChEi (means ± SEMs of triplicate experiments); cited from earlier work
[7] = test system: BChE; set-up: method as in PMID 28286309; details: at 100 μg/mL; cited from earlier work
[8] = test system: AChE; set-up: method as in PMID 28286309; details: at 100 μg/mL; cited from earlier work
[9] = test system: AChE; set-up: method as in PMID 20692939; details: cited from earlier work
[10] = acetylcholinesterase from electric eel, mean ± SEM, read-out: eeAChEi IC50 (μM ± SEM)
[11] = butyrylcholinesterase from equine serum, mean ± SEM, i.a. = not active

COc1cc(O)c2c(c1)C[C@@H](C)OC2=O [Compound 4, 6-Methoxymellein]
IC50 ([1]; read-out: iAβ IC50 (μM ± SEM)): 98 ± 3 µM
Antioxidant Activity EC50 (μmol/µmol of DPPH ± SEM) [2]: > 100 μmol/µmol of DPPH
IC50 [3, 10]: 11.4 ± 0.8 µM
esBChEi %I (10μM) [4]: %I (10μM): 10 ± 3%

Oc1ccc(/C=C/c2cc(O)cc3c2[C@H](c2cc(O)cc(O)c2)[C@@H](c2ccc(O)c(O)c2)O3)cc1 [scirpusin A]
IC50 [5]: 0.7 ± 0.3 µM

C/C=C/c1cc2c(c(=O)o1)C(=O)[C@@H](O)[C@H](C)O2 [Compound 5, Radicinin]
iAβ %I (100μM) [1]: %I (100μM): 44 ± 3
Antioxidant Activity EC50 (μmol/µmol of DPPH ± SEM) [2]: >100 μmol/µmol of DPPH
IC50 [3, 10]: 8.96 ± 0.97 µM
esBChEi %I (10μM) [4]: %I (10μM): 6 ± 1%

O=Cc1c(O)ccc2ccc(=O)oc12 [8-formyl-umbelliferon]
IC50 [6]: 19.1 ± 0.57 µM

COc1ccc2c3c1O[C@H]1C[C@@H](O)C=C[C@@]31CCN(C)C2 [Galantamine]
Percentage of inhibition against BChE [7]: 81.93 ± 2.52%

O=Cc1cc2ccc(=O)oc2cc1O [6-formyl-umbelliferone]
IC50 [6]: 16.7 ± 1.62 µM

COc1c(C)c2c(c(O)c1C/C=C(\C)CCC(=O)O)C(=O)OC2 [Compound 3, Mycophenolic acid]
iAβ %I (100μM) [1]: %I (100μM): 38 ± 3
Antioxidant Activity EC50 (μmol/µmol of DPPH ± SEM) [2]: 14.7 μmol/µmol of DPPH and 14.7 ± 3.4 μmol/µmol of DPPH
IC50 [3, 10]: 7.84 ± 0.72 µM
esBChEi IC50 (μM ± SEM) [4, 11]: i.a.

O=c1c(O)c(-c2ccc(O)c(O)c2)oc2cc(O)cc(O)c12 [Quercetin, reference compound]
IC50 ([1]; read-out: iAβ IC50 (μM ± SEM)): 0.82 ± 0.07 µM

C/C=C/c1cc2c(c(=O)o1)[C@@H](O)[C@@H](O)[C@H](C)O2 [Compound 2, 2-epi-Radicinol]
IC50 ([1]; read-out: iAβ IC50 (μM ± SEM)): 74 ± 1 µM
Antioxidant Activity EC50 (μmol/µmol of DPPH ± SEM) [2]: > 100 μmol/µmol of DPPH
IC50 [3, 10]: 6.86 ± 0.67 µM
esBChEi IC50 (μM ± SEM) [4, 11]: i.a.

pteryxin
Percentage of inhibition against AChE [8]: 9.30 ± 1.86%
Percentage of inhibition against BChE [7]: 91.62 ± 1.53%

O=C(O)c1cc(O)c(O)c(O)c1 [Gallic acid, reference compound]
Antioxidant Activity EC50 (μmol/µmol of DPPH ± SEM) [2]: 0.054 ± 0.004 μmol/µmol of DPPH

Oc1c(I)cc(Cl)c2cccnc12 [Clioquinol, reference compound]
IC50 ([1]; read-out: iAβ IC50 (μM ± SEM)): 7.6 ± 0.8 µM
Antioxidant Activity EC50 (μmol/µmol of DPPH ± SEM) [2]: 0.74 ± 0.04 μmol/µmol of DPPH
IC50 [3, 10]: 8.12 ± 1 µM
esBChEi %I (10μM) [4]: %I (10μM): 10 ± 1%

ε-viniferin glucoside
IC50 [5]: 0.2 ± 0.3 µM

CC[C@H](C)[C@@H]1NC(=O)C(C(C)=O)=C1O [Compound 1, Tenuazonic acid]
IC50 ([1]; iAβ IC50 (μM ± SEM)): ~100 µM
iAβ %I (100μM) [1]: %I (100μM): 50 ± 8
Antioxidant Activity EC50 (μmol/µmol of DPPH ± SEM) [2]: 2.6 μmol/µmol of DPPH and 2.6 ± 0.2 μmol/µmol of DPPH
IC50 [3]: 8.13 ± 0.08 µM

COC(=O)/C=C/c1ncn(C)c1CC=C(C)C [Compound 6, Fungerin]
iAβ %I (100μM) [1]: %I (100μM): 33 ± 9
Antioxidant Activity EC50 (μmol/µmol of DPPH ± SEM) [2]: >100 μmol/µmol of DPPH
Activity as an AChE inhibitor [9]: medium-high micromolar range
IC50 [3, 10]: 86 ± 15 µM
IC50 ([4]; butyrylcholinesterase from equine serum, mean ± SEM, i.a. = not active, read-out: esBChEi IC50 (μM ± SEM)): 1.75 ± 0.59 µM
Potency on BChE compared to that on AChE ([4]; esBChE vs eeAChE IC50): about 50 times
